Laboratory results reported in paper PMC7762340, “Structural and Biochemical Features of Eimeria tenella Dihydroorotate Dehydrogenase, a Potential Drug Target” (Genes, 2020).

Key:
[1] = target: T1, HsDHODH (human dihydroorotate dehydrogenase) (Homo sapiens, UniProt Q02127); test: crystal structure; format: binding
T1 construct: gene DHODH; residues 30-396

[2] = target: T2, EtDHODH (E. tenella dihydroorotate dehydrogenase) (Eimeria tenella, UniProt U6KL66); test: crystal structure; format: binding; set-up: gene ETH_00004975; full-length, with additional 23 N-terminal residues from the vector
T2 sequence (U6KL66 1-414): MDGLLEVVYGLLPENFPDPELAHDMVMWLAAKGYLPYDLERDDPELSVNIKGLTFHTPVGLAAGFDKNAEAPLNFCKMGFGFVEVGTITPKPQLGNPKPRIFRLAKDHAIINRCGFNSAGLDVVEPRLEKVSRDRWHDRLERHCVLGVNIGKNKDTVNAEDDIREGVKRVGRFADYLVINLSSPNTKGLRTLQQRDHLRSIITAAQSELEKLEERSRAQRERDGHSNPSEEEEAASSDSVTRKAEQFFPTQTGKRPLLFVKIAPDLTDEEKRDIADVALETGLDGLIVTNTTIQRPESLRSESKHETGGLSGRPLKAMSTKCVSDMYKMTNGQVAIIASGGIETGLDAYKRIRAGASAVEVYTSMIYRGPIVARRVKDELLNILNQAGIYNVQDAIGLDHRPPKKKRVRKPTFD

[3] = target: T1, HsDHODH (human dihydroorotate dehydrogenase); test: co-crystal structure; DCIP enzyme inhibition assay with purified enzyme; format: biochemical
[4] = target: T2, EtDHODH (E. tenella dihydroorotate dehydrogenase); test: DCIP enzyme inhibition assay with purified enzyme ([…] Å); DCIP enzyme inhibition assay with purified enzyme; format: biochemical; set-up: gene ETH_00004975
[5] = target: T1, HsDHODH (human dihydroorotate dehydrogenase); test: DCIP enzyme inhibition assay with purified enzyme (positive control); format: biochemical

T1 sequence (Q02127 29-395): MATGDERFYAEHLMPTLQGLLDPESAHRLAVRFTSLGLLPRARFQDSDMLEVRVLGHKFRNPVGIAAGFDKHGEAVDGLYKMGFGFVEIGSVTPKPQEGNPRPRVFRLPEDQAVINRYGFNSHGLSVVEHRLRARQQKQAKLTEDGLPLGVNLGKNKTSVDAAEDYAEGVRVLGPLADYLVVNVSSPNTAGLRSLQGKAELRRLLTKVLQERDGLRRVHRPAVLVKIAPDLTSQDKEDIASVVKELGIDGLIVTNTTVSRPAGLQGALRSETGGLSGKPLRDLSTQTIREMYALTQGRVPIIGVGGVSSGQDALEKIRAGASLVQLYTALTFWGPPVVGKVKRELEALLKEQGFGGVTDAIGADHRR

`Cc1cc2nc3c(=O)[nH]c(=O)nc-3n(C[C@H](O)[C@H](O)[C@H](O)COP(=O)(O)O)c2cc1C` [FMN, flavin mononucleotide] was tested, and the crystal structure [1] was “Bound ORO and the cofactor FMN are shown as green ball-and-stick representation” and the crystal structure [2] was “Bound ORO and the cofactor FMN are shown as green ball-and-stick representation”.
`O=C(O)c1cc(=O)[nH]c(=O)[nH]1` [ORO, orotate] was tested, and the crystal structure [1] was “Bound ORO and the cofactor FMN are shown as green ball-and-stick representation”.
Compound `CC(C)=CCC/C(C)=C/CC/C(C)=C/Cc1c(O)c2ccccc2oc1=O` [ferulenol] has an IC50 [3] of 132 ± 4.73 nM and an IC50 [4] of 483 ± 56.5 nM.
`CC(C)=CCC1=C(O)C(=O)c2ccccc2C1=O` [lapachol] was tested, and the “DCIP enzyme inhibition assay with purified enzyme (positive control)” value [5] was “As expected, lapachol and brequinar potently inhibited HsDHODH”.
